The results in this text go back to patent EP4775580A1, “COMPOUND, PHARMACEUTICAL COMPOSITION COMPRISING SAME, AND USE THEREOF” (Euregen Biopharma Co., Ltd., priority 2023, dated 2025).

A short description of series [1]: Pharmacokinetics in rats after single IV and PO administration (LC-MS/MS). The series is classed as in vivo, male SD rats. As to conditions: SD rats, comparative compounds; for PO F: PO 10 mg/kg vs IV 1 mg/kg according to Table 3; for AUC(0-t) / clearance / Cmax / Vd / half-life: male, rat, plasma; for clearance: read-out: IV CL; for Vd: read-out: IV Vss. Here is the method:
• 1. Objective: This study aimed to characterize the pharmacokinetic properties of selected compounds from the examples of the present invention in SD rats following single intravenous (IV) injection and oral (PO) administration using LC-MS/MS methodology. • 2. Experimental Materials: Test compounds were prepared according to the examples of the present invention; male SD rats were obtained from the Laboratory Animal Department of Shanghai Institute of Planned Parenthood Research (License No. SCXK(Shanghai)2018-0006) or Shanghai Jihui Laboratory Animal Breeding Co., Ltd. (License No. SCXK(Shanghai)2022-0009). • 3. Experimental Methods: Preparation of 0.5% methylcellulose: 5 g of methylcellulose was weighed and dissolved in 1000 mL of purified water. Preparation of 0.5% methylcellulose (pH = 5.03): 5 g of methylcellulose was weighed and dissolved in 1000 mL of purified water, and the pH was adjusted to 5.03 with 100 mM citric acid.
Preparation of oral formulations: The required amount of test compound was weighed and dissolved in 0.5% methylcellulose solution or 0.5% methylcellulose (pH = 5.03) to obtain a suspension or solution at 1 or 3 mg/mL.
Preparation of intravenous injection formulations: The required amount of test compound (EB229, EB300, EB341, EB342) was weighed and dissolved in 0.5 mL dimethyl sulfoxide to prepare a 4 mg/mL solution. To 0.25 mL of this solution, 0.5 mL of polyethylene glycol 15-hydroxystearate (Solutol) and 4.25 mL of normal saline were added to obtain a 0.2 mg/mL solution. For EB834, 6 mg was weighed and dissolved in 0.1 mL dimethyl sulfoxide, followed by addition of 0.2 mL polyethylene glycol 15-hydroxystearate (Solutol) and 1.7 mL normal saline to obtain a 3 mg/mL solution.
Dosing: Male SD rats were fasted overnight prior to oral (PO) administration; fasting was not required for the single intravenous (IV) injection group. Food was provided 4 hours post-dosing.
Sample Collection: Blood was collected from the jugular vein or other suitable veins, with 0.2 mL collected at each time point. Samples were placed in tubes containing dipotassium ethylenediaminetetraacetate and kept on ice prior to centrifugation. Within 1 hour of blood collection, samples were centrifuged at 6800 × g for 6 minutes at 2-8°C and stored at -80°C.

In series [2] the test system is MV-4-11 cells. In words: Antiproliferative activity against MV-4-11 cells (CTG method, 72 h). The series is classed as cell-based. To be noted: Homo sapiens, MV4-11, 72 hours incubation, CellTiter-Glo. The source says: • 1. Experimental Principle: MV-4-11 is a human leukemia cell line harboring MLL translocation and expressing the MLL fusion protein MLL-AF4. […] Experimental Materials: CellTiter-Glo was purchased from Promega (Cat. #G7571); IMDM medium was purchased from Gibco (Cat. #12440061); fetal bovine serum was purchased from Excell (Cat. #FND500); dimethyl sulfoxide (DMSO) was purchased from Sigma (Cat. #D2650); 384-well cell culture plates were purchased from Corning (Cat. #3756); automated cell counter was obtained from Life Technologies (Model: Countess II); microplate reader was obtained from PerkinElmer (Model: EnVision Multilabel Reader). • 3. Experimental Methods: Cells in logarithmic growth phase were resuspended in growth medium (IMDM + 10% FBS) and diluted to the target density (50,000/mL). The cell suspension was seeded into 384-well plates at 50 µL per well and incubated overnight at 37°C in a 5% CO2 incubator.
Test compounds were dissolved in DMSO to prepare 10 mM stock solutions. The stock solutions were first diluted to 2 mmol/L with DMSO, followed by 3-fold serial dilutions to generate 10 concentrations. From each concentration, 5.5 µL was diluted with 94.5 µL growth medium. The diluted solutions were then added to the 384-well plates containing seeded cells at 5 µL per well.
Cells treated with test compounds were incubated at 37°C in a 5% CO2 incubator for 72 hours. The 384-well plates were equilibrated at room temperature, and 15 µL of CellTiter-Glo reagent was added to each well. The plates were mixed on a vortex mixer for 2 minutes and incubated at room temperature for 60 minutes. Luminescence values were read using the EnVision Multilabel Reader, and IC50 values were calculated using GraphPad Prism 5.0 software.
On the technique in general: In ATP-based viability assays light output follows the ATP content of the culture.

Series [3] concerns MV-4-11 cells. Kind of series: Antiproliferative activity, CellTiter-Glo, 7 days (Test Example 2), MV-4-11. The format is cell-based. To be noted: Homo sapiens, MV4-11, 168 h, 7 days incubation. The source says:
(§1) [0134] 1. Experimental Principle: MV-4-11, Molm-13, and OCI-AML-3 cells are human hematologic tumor cell lines harboring the Menin-MLL fusion. HL-60 is a wild-type human hematologic tumor cell line without Menin-MLL fusion. […] 2. Experimental Materials: MV-4-11, Molm-13, OCI-AML-3, and HL-60 cells were all purchased from Cobioer; CellTiter-Glo® was purchased from Promega (Cat. #G7571); RPMI-1640 was purchased from Viva Cell (Cat. #C3010-0500); IMDM was purchased from Viva Cell (Cat. #C3040-0500); fetal bovine serum (FBS) was purchased from Biosera (Cat. #FB-1058/500); penicillin-streptomycin was purchased from BasalMedia (Cat. #S110JV); 0.25% Trypsin-EDTA was purchased from BasalMedia (Cat. #S310KJ); dimethyl sulfoxide (DMSO) was purchased from Sinopharm (Cat. #30072418); 96-well plates were purchased from Corning (Cat. #3610); incubator was obtained from PHCbi (Model: MCO-18AC); inverted microscope was obtained from Mingmei (Cat. #MI52-0); automated cell counter was obtained from BodBoge (Model: JSY-SC-031N); microplate reader was obtained from PerkinElmer (Model: Envision); data processing software: GraphPad Prism 8.0. 3. Experimental Methods: Four cell lines in logarithmic growth phase were resuspended in their respective growth media (MV-4-11: IMDM + 20% FBS; Molm-13: RPMI-1640 + 20% FBS; OCI-AML-3: RPMI-1640 + 20% FBS; HL-60: RPMI-1640 + 10% FBS) and diluted to target densities (12,500, 6,250, 12,500, and 12,500/mL, respectively). The cell suspensions were seeded into 96-well plates at 80 µL per well and incubated overnight at 37°C in a 5% CO2 incubator. Culture medium served as the background control. Test compounds were dissolved in DMSO to prepare 10 mmol/L stock solutions. The stock solutions were first diluted to 2 mmol/L with DMSO, followed by 4-fold serial dilutions to generate 10 concentrations. From each concentration, 2 µL was diluted with 78 µL growth medium. […] After incubation at room temperature for 10 minutes, luminescence values were read using the EnVision microplate reader, and IC50 values were calculated using GraphPad Prism 8.0 software. […]

Series [4] concerns HL-60 cells. In words: Antiproliferative activity, CellTiter-Glo, 7 days (Test Example 2), HL-60. To be noted: Homo sapiens, 168 h, HL-60 cells (no Menin-MLL fusion), 7 days incubation. The format is cell-based.
Source text: as §1

Setting [5] is: IV, dose 1 mg/kg according to Table 3, read-out: IV AUC(0-t).
Setting [6] is: IV, dose 1 mg/kg according to Table 3.
[7] abbreviates: IV, dose 1 mg/kg according to Table 3, read-out: IV Cmax.
Where [8] appears, read: IV, dose 1 mg/kg according to Table 3, read-out: IV t1/2 (converted).
Where [9] appears, read: PO, dose 10 mg/kg in 0.5% MC according to Table 3, read-out: PO AUC(0-t).
Setting [10] is: PO, dose 10 mg/kg in 0.5% MC according to Table 3, read-out: PO Cmax.
[11] abbreviates: PO, dose 10 mg/kg in 0.5% MC according to Table 3, read-out: PO t1/2 (converted).

Where two headings read alike, the source gives them in different places.

With `CCN(C(=O)c1cc(F)ccc1N1CCN(C2CCN(Cc3ccc4[nH]c(C#N)cc4c3C)CC2)c2ncncc21)C(C)C` [Comparative Comp. 7], in series [1], the “PO F” value is recorded as 3.7%. The AUC(0-t) in series [1] (setting [5]) came to 264 ng·h/mL; in series [1] (setting [9]) it was 119 ng·h/mL. For the same compound, in series [1] (setting [6]), the clearance is 62.1 mL/min/kg. The Cmax worked out at 152 ng/mL in series [1] (setting [7]) and 27 ng/mL in series [1] (setting [10]). Also, the Vd in series [1] (setting [6]) stood at 6.62 L/kg. The results for the half-life in series [1] (setting [8]) and in series [1] (setting [11]) were 1.55 h and 2.29 h, respectively.

In the case of `CCN(C(=O)c1cc(F)ccc1N1CCN(C2CCN(Cc3ccc4c(cc(C#N)n4C[C@@H]4CCNC4)c3C)CC2)c2ncncc21)C(C)C` [Comparative Comp. 8], the “PO F” value in series [1] came to 13.85%. The values for the AUC(0-t) in series [1] (setting [5]) and in series [1] (setting [9]) were 85.7 ng·h/mL and 119 ng·h/mL, respectively. The clearance in series [1] (setting [6]) came to 185 mL/min/kg. In addition, the Cmax worked out at 271 ng/mL in series [1] (setting [7]) and 41.9 ng/mL in series [1] (setting [10]). Also, in series [1] (setting [6]), the Vd came to 9.61 L/kg. The results for the half-life in series [1] (setting [8]) and in series [1] (setting [11]) were 2.06 h and 1.8 h, respectively.

For the compound `CCN(C(=O)c1cc(F)ccc1N1CCN(C2CCN(Cc3ccc4c(cc(C#N)n4CC4CNC4)c3C)CC2)c2ncncc21)C(C)C` [Comparative Comp. 9], the “PO F” value in series [1] was determined as 13.50%. Also, the figures for the AUC(0-t) in series [1] (setting [5]) and in series [1] (setting [9]) were 169 ng·h/mL and 228 ng·h/mL, respectively. The clearance in series [1] (setting [6]) was 92.4 mL/min/kg. Moreover, the Cmax in series [1] (setting [7]) is 376 ng/mL; in series [1] (setting [10]), 101 ng/mL. In addition, the Vd in series [1] (setting [6]) came to 30.6 L/kg. In addition, the half-life was 5.98 h in series [1] (setting [8]) and 5.12 h in series [1] (setting [11]).

On to `CCN(C(=O)c1cc(F)ccc1N1CCN(C2CCN(Cc3ccc4c(cc(C#N)n4CC4COC4)c3C)CC2)c2ncncc21)C(C)C` [Comparative Comp. 10], for which the “PO F” value in series [1] is 49.68%. The AUC(0-t) in series [1] (setting [5]) amounted to 16.9 ng·h/mL; in series [1] (setting [9]) it was 83.8 ng·h/mL. Moreover, in series [1] (setting [6]), the clearance was 947 mL/min/kg. The figures for the Cmax in series [1] (setting [7]) and in series [1] (setting [10]) were 16.2 ng/mL and 33.3 ng/mL, respectively. In addition, in series [1] (setting [6]), the Vd was determined as 59.4 L/kg. Further, the half-life in series [1] (setting [8]) is 0.82 h; in series [1] (setting [11]) it was 1.26 h.

In turn, `CCN(C(=O)c1cc(F)ccc1N1CCN(C2CCN(C[C@H]3CC[C@H](NS(C)(=O)=O)CC3)C2)c2ncncc21)C(C)C` (stereo partly shown) [Comparative Compound 1] gave an IC50 in series [2] of 293 nM.

Regarding `CCN(C(=O)c1cc(F)ccc1N1CCN(C2CCN(Cc3ccc4[nH]c(C#N)cc4c3C)C2)c2ncncc21)C(C)C` (stereo not shown) [Comparative Compound 2], 800 nM corresponded to half-maximal inhibition in series [2] (IC50).

For `CNc1nc(NC2CCN(Cc3ccc4c(cc(C#N)n4C[C@H](C)N4CCN(S(C)(=O)=O)CC4)c3C)CC2)c2cc(CC(F)(F)F)sc2n1` [KO539], the IC50 was determined as 14.4 nM in series [3] and 2050 nM in series [4].

One may read the AUC(0-t) as the area under the concentration-time curve up to a stated or last time point. As usually defined, the Cmax is the highest concentration seen after dosing. Broadly, the IC50 is the concentration that gives 50% inhibition.
